What follows are compounds tested on ABUTH (assay: Post-emergence herbicidal action). Conditions: Table 7, post-emergence (PO), 320 g/ha, assessed after about 3 weeks.
Assay type: in vivo
Description: (§1) Seeds of monocotyledonous and dicotyledonous weed and crop plants are laid out in sandy loam soil in wood-fiber pots, covered with soil and cultivated in a greenhouse under good growth conditions. 2 to 3 weeks after sowing, the test plants are treated at the one-leaf stage. The compounds of the invention, formulated in the form of wettable powders (WP) or as emulsion concentrates (EC), are then sprayed onto the green parts of the plants in the form of an aqueous suspension or emulsion at a water application rate equating to 600 to 800 l/ha, with addition of 0.2% wetting agent. After the test plants have been left to stand in the greenhouse under optimal growth conditions for about 3 weeks, the action of the preparations is assessed visually in comparison to untreated controls (herbicidal action in percent (%): 100% activity=the plants have died, 0% activity=like control plants). […] At the same time, inventive compounds leave Gramineae crops such as barley, wheat, rye, millet/sorghum, corn or rice virtually undamaged when applied post-emergence, even at high active ingredient dosages. In addition, some substances are also harmless to dicotyledonous crops such as soya, cotton, oilseed rape, sugar beet or potatoes. Some of the compounds according to the invention have high selectivity and are therefore suitable for controlling unwanted vegetation in agricultural crops by the post-emergence method. The tables below illustrate, in an exemplary manner, the post-emergence herbicidal action of the compounds according to the invention, the herbicidal activity being stated in percent.
For `Nc1cc(-c2ccc3ccoc3c2)nc(C(=O)OCc2ccc(F)cc2F)c1Cl` [Example I-43], the “Herbicidal action against ABUTH” value was 90%.
For `Nc1cc(-c2ccc3ccsc3c2)nc(C(=O)OCc2cccc(Cl)c2)c1Cl` [Example I-50], the “Herbicidal action against ABUTH” value was 90%.
With `Nc1cc(-c2ccc3ccoc3c2)nc(C(=O)OCc2c(F)c(F)c(F)c(F)c2F)c1Cl` [Example I-54] the “Herbicidal action against ABUTH” value was 80%.

Same assay, conditions: Table 8, post-emergence (PO), 320 g/ha, assessed after about 3 weeks
`Nc1cc(-c2ccc3ccoc3c2)nc(C(=O)OCc2ccc(F)cc2F)c1Cl` [Example I-43] was tested, and the “Herbicidal action against ABUTH” value was 90%.
With `Nc1cc(-c2ccc3ccsc3c2)nc(C(=O)OCc2cccc(Cl)c2)c1Cl` [Example I-50] the “Herbicidal action against ABUTH” value was 90%.
In the case of `Nc1cc(-c2ccc3ccoc3c2)nc(C(=O)OCc2c(F)c(F)c(F)c(F)c2F)c1Cl` [Example I-54], the “Herbicidal action against ABUTH” value was 80%.

Same assay, conditions: Table 9, post-emergence (PO), 320 g/ha, assessed after about 3 weeks
`Nc1cc(-c2ccc3ccsc3c2)nc(C(=O)OCc2c(F)cc(F)cc2F)c1Cl` [Example I-32] was tested, and the “Herbicidal action against ABUTH” value was 90%.

What follows are compounds tested on SETVI (assay: Post-emergence herbicidal action). Conditions: Table 7, post-emergence (PO), 320 g/ha, assessed after about 3 weeks.
Assay type: in vivo
Description: as §1
`Nc1cc(-c2ccc3ccoc3c2)nc(C(=O)OCc2ccc(F)cc2F)c1Cl` [Example I-43] was tested, and the “Herbicidal action against SETVI” value was 90%.
`Nc1cc(-c2ccc3ccsc3c2)nc(C(=O)OCc2cccc(Cl)c2)c1Cl` [Example I-50] was tested, and the “Herbicidal action against SETVI” value was 40%.
In the case of `Nc1cc(-c2ccc3ccoc3c2)nc(C(=O)OCc2c(F)c(F)c(F)c(F)c2F)c1Cl` [Example I-54], the “Herbicidal action against SETVI” value was 80%.

Same assay, conditions: Table 8, post-emergence (PO), 320 g/ha, assessed after about 3 weeks
For `Nc1cc(-c2ccc3ccoc3c2)nc(C(=O)OCc2ccc(F)cc2F)c1Cl` [Example I-43], the “Herbicidal action against SETVI” value was 90%.
`Nc1cc(-c2ccc3ccsc3c2)nc(C(=O)OCc2cccc(Cl)c2)c1Cl` [Example I-50] was tested, and the “Herbicidal action against SETVI” value was 40%.
`Nc1cc(-c2ccc3ccoc3c2)nc(C(=O)OCc2c(F)c(F)c(F)c(F)c2F)c1Cl` [Example I-54] was tested, and the “Herbicidal action against SETVI” value was 80%.

The compounds below were run on ECHCG (assay: Post-emergence herbicidal action). Conditions: Table 7, post-emergence (PO), 320 g/ha, assessed after about 3 weeks.
Assay type: in vivo
Description: as §1
With `Nc1cc(-c2ccc3ccoc3c2)nc(C(=O)OCc2ccc(F)cc2F)c1Cl` [Example I-43] the “Herbicidal action against ECHCG” value was 80%.
`Nc1cc(-c2ccc3ccsc3c2)nc(C(=O)OCc2cccc(Cl)c2)c1Cl` [Example I-50] was tested, and the “Herbicidal action against ECHCG” value was 90%.
In the case of `Nc1cc(-c2ccc3ccoc3c2)nc(C(=O)OCc2c(F)c(F)c(F)c(F)c2F)c1Cl` [Example I-54], the “Herbicidal action against ECHCG” value was 80%.

Same assay, conditions: Table 8, post-emergence (PO), 320 g/ha, assessed after about 3 weeks
For `Nc1cc(-c2ccc3ccoc3c2)nc(C(=O)OCc2ccc(F)cc2F)c1Cl` [Example I-43], the “Herbicidal action against ECHCG” value was 80%.
With `Nc1cc(-c2ccc3ccsc3c2)nc(C(=O)OCc2cccc(Cl)c2)c1Cl` [Example I-50] the “Herbicidal action against ECHCG” value was 90%.
With `Nc1cc(-c2ccc3ccoc3c2)nc(C(=O)OCc2c(F)c(F)c(F)c(F)c2F)c1Cl` [Example I-54] the “Herbicidal action against ECHCG” value was 80%.

What follows are compounds tested on AMARE (assay: Post-emergence herbicidal action). Conditions: Table 7, post-emergence (PO), 320 g/ha, assessed after about 3 weeks.
Assay type: in vivo
Description: as §1
For `Nc1cc(-c2ccc3ccoc3c2)nc(C(=O)OCc2ccc(F)cc2F)c1Cl` [Example I-43], the “Herbicidal action against AMARE” value was 100%.
`Nc1cc(-c2ccc3ccsc3c2)nc(C(=O)OCc2cccc(Cl)c2)c1Cl` [Example I-50] was tested, and the “Herbicidal action against AMARE” value was 100%.
In the case of `Nc1cc(-c2ccc3ccoc3c2)nc(C(=O)OCc2c(F)c(F)c(F)c(F)c2F)c1Cl` [Example I-54], the “Herbicidal action against AMARE” value was 100%.

Same assay, conditions: Table 8, post-emergence (PO), 320 g/ha, assessed after about 3 weeks
In the case of `Nc1cc(-c2ccc3ccoc3c2)nc(C(=O)OCc2ccc(F)cc2F)c1Cl` [Example I-43], the “Herbicidal action against AMARE” value was 100%.
With `Nc1cc(-c2ccc3ccsc3c2)nc(C(=O)OCc2cccc(Cl)c2)c1Cl` [Example I-50] the “Herbicidal action against AMARE” value was 100%.
For `Nc1cc(-c2ccc3ccoc3c2)nc(C(=O)OCc2c(F)c(F)c(F)c(F)c2F)c1Cl` [Example I-54], the “Herbicidal action against AMARE” value was 100%.

Same assay, conditions: Table 9, post-emergence (PO), 320 g/ha, assessed after about 3 weeks
In the case of `Nc1cc(-c2ccc3ccsc3c2)nc(C(=O)OCc2c(F)cc(F)cc2F)c1Cl` [Example I-32], the “Herbicidal action against AMARE” value was 100%.

What follows are compounds tested on ABUTH (assay: Pre-emergence herbicidal action). Conditions: Table 3, pre-emergence (PE), 320 g/ha, scored after 3 weeks.
Assay type: in vivo
Text: (§2) Seeds of monocotyledonous and dicotyledonous weed plants and crop plants are laid out in sandy loam soil in wood-fiber pots and covered with soil. The compounds of the invention, formulated in the form of wettable powders (WP) or as emulsion concentrates (EC), are then applied to the surface of the covering soil in the form of an aqueous suspension or emulsion at a water application rate equating to 600 to 800 I/ha, with addition of 0.2% wetting agent. After the treatment, the pots are placed in a greenhouse and kept under good growth conditions for the trial plants. The damage to the test plants is scored visually after a test period of 3 weeks by comparison with untreated controls (herbicidal activity in percent (%): 100% activity=the plants have died, 0% activity=like control plants).
(§3) At the same time, inventive compounds leave Gramineae crops such as barley, wheat, rye, millet/sorghum, corn or rice virtually undamaged when applied pre-emergence, even at high active ingredient dosages. In addition, some substances are also harmless to dicotyledonous crops such as soya, cotton, oilseed rape, sugar beet or potatoes. […] The tables below illustrate, in an exemplary manner, the pre-emergence herbicidal action of the compounds according to the invention, the herbicidal activity being stated in percent.
For `Nc1cc(-c2ccc3ccsc3c2)nc(C(=O)OCc2c(F)cc(F)cc2F)c1Cl` [Example I-32], the “Herbicidal action against ABUTH” value was 30%.

These compounds were tested on SETVI (assay: Pre-emergence herbicidal action). Conditions: Table 3, pre-emergence (PE), 320 g/ha, scored after 3 weeks.
Assay type: in vivo
Text: as §2, §3
`Nc1cc(-c2ccc3ccsc3c2)nc(C(=O)OCc2c(F)cc(F)cc2F)c1Cl` [Example I-32] was tested, and the “Herbicidal action against SETVI” value was 80%.

The compounds below were run on ALOMY (assay: Pre-emergence herbicidal action). Conditions: Table 3, pre-emergence (PE), 320 g/ha, scored after 3 weeks.
Assay type: in vivo
Text: as §2, §3
With `Nc1cc(-c2ccc3ccsc3c2)nc(C(=O)OCc2c(F)cc(F)cc2F)c1Cl` [Example I-32] the “Herbicidal action against ALOMY” value was 70%.

These compounds were tested on ECHCG (assay: Pre-emergence herbicidal action). Conditions: Table 3, pre-emergence (PE), 320 g/ha, scored after 3 weeks.
Assay type: in vivo
Text: as §2, §3
With `Nc1cc(-c2ccc3ccsc3c2)nc(C(=O)OCc2c(F)cc(F)cc2F)c1Cl` [Example I-32] the “Herbicidal action against ECHCG” value was 80%.

Same assay, conditions: Table 4, pre-emergence (PE), 320 g/ha, scored after 3 weeks
`Nc1cc(-c2ccc3ccoc3c2)nc(C(=O)OCc2ccc(F)cc2F)c1Cl` [Example I-43] was tested, and the “Herbicidal action against ECHCG” value was 0%.
With `Nc1cc(-c2ccc3ccsc3c2)nc(C(=O)OCc2cccc(Cl)c2)c1Cl` [Example I-50] the “Herbicidal action against ECHCG” value was 70%.
`Nc1cc(-c2ccc3ccoc3c2)nc(C(=O)OCc2c(F)c(F)c(F)c(F)c2F)c1Cl` [Example I-54] was tested, and the “Herbicidal action against ECHCG” value was 0%.

The compounds below were run on AMARE (assay: Pre-emergence herbicidal action). Conditions: Table 3, pre-emergence (PE), 320 g/ha, scored after 3 weeks.
Assay type: in vivo
Text: as §2, §3
`Nc1cc(-c2ccc3ccsc3c2)nc(C(=O)OCc2c(F)cc(F)cc2F)c1Cl` [Example I-32] was tested, and the “Herbicidal action against AMARE” value was 100%.

Same assay, conditions: Table 4, pre-emergence (PE), 320 g/ha, scored after 3 weeks
For `Nc1cc(-c2ccc3ccoc3c2)nc(C(=O)OCc2ccc(F)cc2F)c1Cl` [Example I-43], the “Herbicidal action against AMARE” value was 100%.
With `Nc1cc(-c2ccc3ccsc3c2)nc(C(=O)OCc2cccc(Cl)c2)c1Cl` [Example I-50] the “Herbicidal action against AMARE” value was 80%.
`Nc1cc(-c2ccc3ccoc3c2)nc(C(=O)OCc2c(F)c(F)c(F)c(F)c2F)c1Cl` [Example I-54] was tested, and the “Herbicidal action against AMARE” value was 80%.
